Measurements reported in patent US10874743B2, “IRAK degraders and uses thereof” (Kymera Therapeutics, Inc., priority 2017, dated 2020).

Assays:
IRAK4 [1] = biological target: T1, IRAK4 (Homo sapiens, UniProt Q9NWZ3); assay: OCI-LY-10 MSD assay for IRAK4 DC50; assay type: cell-based; parameters: endogenous in cells; host or cells: OCI-LY10; conditions: OCI-LY10 cells, 4 hr incubation, concentration required to degrade 50% of protein
T1 sequence (Q9NWZ3 1-460): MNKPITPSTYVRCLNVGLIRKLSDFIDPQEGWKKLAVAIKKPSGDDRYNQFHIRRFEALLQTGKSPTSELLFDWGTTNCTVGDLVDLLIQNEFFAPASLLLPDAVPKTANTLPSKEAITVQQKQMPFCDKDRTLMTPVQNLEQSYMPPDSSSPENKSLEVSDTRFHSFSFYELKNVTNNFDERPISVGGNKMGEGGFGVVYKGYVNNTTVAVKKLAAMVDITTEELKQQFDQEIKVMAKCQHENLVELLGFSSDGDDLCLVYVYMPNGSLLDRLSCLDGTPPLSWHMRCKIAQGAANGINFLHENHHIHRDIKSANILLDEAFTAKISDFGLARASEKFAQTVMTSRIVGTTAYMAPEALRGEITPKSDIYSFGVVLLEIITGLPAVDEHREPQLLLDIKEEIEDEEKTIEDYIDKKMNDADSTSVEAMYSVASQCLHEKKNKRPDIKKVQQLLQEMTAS
Summary of the method: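 IRAK4 level was quantified by MSD electrochemiluminescence (anti-IRAK4 capture antibody, rabbit anti-IRAK4 detection antibody) in RIPA lysates of OCI-Ly10 cells. Cells had been treated with compound for 4 hr (8-point, 3-fold serial dilution). Remaining protein versus concentration was fitted to a sigmoidal curve to give DC50.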

IRAK4 [2] = biological target: T1, IRAK4; assay: OCI-LY-10 degradation assay (western blot, % IRAK4 degraded after 4 hours); assay type: cell-based; parameters: endogenous in cells; host or cells: OCI-LY10; conditions: OCI-LY10 cells, 4 hours; for OCI-LY10 % IRAK4 Degradation (0.01 uM): 0.01 uM compound; for OCI-LY10 % IRAK4 Degradation (0.1 uM): 0.1 uM compound; for OCI-LY10 % IRAK4 Degradation (1 uM): 1 uM compound
Summary of the method: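 IRAK4 loss after 4 h at 37° C was scored A (>50%), B (>20-50%) or C (<20%) from infrared western blots of RIPA lysates, 20-25 μg protein per lane. Compound was applied at 0.003-10 μM final to OCI-LY10 cells cultured in RPMI-1640 with 20% FBS and 55 μM 2-ME.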

Compound | DC50 (IRAK4 [1]) [nM] | OCI-LY10 % IRAK4 Degradation (0.01 uM) (IRAK4 [2]) | OCI-LY10 % IRAK4 Degradation (0.1 uM) (IRAK4 [2]) | OCI-LY10 % IRAK4 Degradation (1 uM) (IRAK4 [2])
O=C1CCC(N2C(=O)c3cccc(CCCNC(=O)c4ccc(-n5cc(NC(=O)c6coc(-c7ccncc7)n6)c(C(F)F)n5)cc4)c3C2=O)C(=O)N1 (stereo not drawn) [I-255] | > 1000 | C (<20% degradation) | C (<20% degradation) | C (<20% degradation)
O=C1CCC(N2C(=O)c3ccc(N4CCN(CCOCCOCCOCCNC(=O)c5ccc(-n6cc(NC(=O)c7coc(-c8ccnc(NCC9CC9)c8)n7)c(C(F)F)n6)cc5)CC4)cc3C2=O)C(=O)N1 (stereo not drawn) [I-278] | 50 to 100 | C (<20% degradation) | B (>20-50% degradation) | A (>50% degradation)
Cn1c(=O)n(C2CCC(=O)NC2=O)c2cccc(CCCOCCOCCNCc3ccc(-n4cc(NC(=O)c5coc(-c6ccnc(NCC7CC7)c6)n5)c(C(F)F)n4)cc3)c21 (stereo not drawn) [I-332] | < 50 | A (>50% degradation) | A (>50% degradation) | A (>50% degradation)
CN(CCCc1cccc2c1C(=O)N(C1CCC(=O)NC1=O)C2=O)Cc1ccc(-n2cc(NC(=O)c3coc(-c4ccnc(NCC(F)(F)F)c4)n3)c(C(F)F)n2)cc1 (stereo not drawn) [I-360] | > 1000 | B (>20-50% degradation) | C (<20% degradation) | C (<20% degradation)
Cn1c(=O)n(C2CCC(=O)NC2=O)c2ccc(CCCOCCOCCNC(=O)c3ccc(-n4cc(NC(=O)c5coc(-c6ccnc(NCC7CC7)c6)n5)c(C(F)F)n4)cc3)cc21 (stereo not drawn) [I-252] | < 50 | B (>20-50% degradation) | A (>50% degradation) | A (>50% degradation)
O=C1CCC(N2C(=O)c3ccc(NCCOCCN4CC5(CN(CCOCCNCc6ccc(-n7cc(NC(=O)c8coc(-c9ccnc(NCC%10CC%10)c9)n8)c(C(F)F)n7)cc6)C5)C4)cc3C2=O)C(=O)N1 (stereo not drawn) [I-351] | 100 to 500 | C (<20% degradation) | C (<20% degradation) | A (>50% degradation)
O=C1CCC(N2C(=O)c3ccc(CCOCCN4CCC(n5cc(NC(=O)c6coc(-c7ccnc(NCC8CC8)c7)n6)c(C(F)F)n5)CC4)cc3C2=O)C(=O)N1 (stereo not drawn) [I-262] | > 1000 | C (<20% degradation) | B (>20-50% degradation) | B (>20-50% degradation)
O=C1CCC(N2C(=O)c3cccc(CCCNCc4ccc(-n5cc(NC(=O)c6coc(-c7ccncc7)n6)c(C(F)F)n5)cc4)c3C2=O)C(=O)N1 (stereo not drawn) [I-366] | > 1000 | C (<20% degradation) | C (<20% degradation) | C (<20% degradation)
NC(=O)c1nn(-c2ccc(C(=O)NCCOCCOCCOCCOCCCc3cccc4c3C(=O)N(C3CCC(=O)NC3=O)C4=O)cc2)cc1NC(=O)c1coc(-c2ccnc(NCC(F)(F)F)c2)n1 (stereo not drawn) [I-235] | 50 to 100 | C (<20% degradation) | A (>50% degradation) | A (>50% degradation)
